Measurements from patent US11970465B1, “Ethyl {[4-benzoyl-5-(3-fluorophenyl)-4H-1,2,4-triazol-3-yl]thio}acetate as an antimicrobial compound” (priority 2023, dated 2024).

Legend:
[1] = system: different microbes (Bacillus cereus, Staphylococcus aureus, Pseudomonas aeruginosa, Escherichia coli, Aspergillus flavus, Chrysosporium keratinophilum); assay: agar plate disc-diffusion antimicrobial test; assay type: cell-based; details: disc wetted with 10 μL of 10 mg/mL in DMSO; 37° C., 48 h (72 h for fungi); inhibition zones measured in mm but not given
Method: The agar plate disc-diffusion method was applied. Sterilized filter papers (6 mm in diameter) were wetted with 10 μL of a solution of ethyl {[4-benzoyl-5-(3-fluorophenyl)-4H-1,2,4-triazol-3-yl]thio}acetate (III) to be tested, containing 10 mg/mL in DMSO, and the discs were allowed to air dry. The discs were then placed onto the surface of agar plates (nutrient agar for bacteria and Sabouraud's dextrose agar for fungi) seeded with the test organism. Each plate contained 15 mL of the agar medium, previously seeded with 0.2 mL of the broth culture of each organism pregrown for 18 h. The plates were incubated at 37° C. for 48 h, and 72 h for fungi. The inhibition zones was measured in mm. Discs impregnated with DMSO were used as a control, and its inhibition zone was subtracted from the tested compound actual inhibition zone. […] The antibacterial activity was screened against gram positive bacteria namely Bacillus cereus and Staphylococcus aureus and gram-negative bacterial strains namely Pseudomonas aeruginosa and Escherichia coli, while the antifungal activity was screened against Aspergillus flavus and Chrysosporium keratinophilum.

With `CCOC(=O)CSc1nnc(-c2cccc(F)c2)n1C(=O)c1ccccc1` [III, ethyl {[4-benzoyl-5-(3-fluorophenyl)-4H-1,2,4-triazol-3-yl]thio}acetate] the antimicrobial activities [1] was “excellent antimicrobial activities” and the melting point was 154 to 155 °C.
